In patent publication US11155582B2, “Antiviral peptide and use thereof” (priority 2018, dated 2021):
“And” between values parts separate entries of the source, which are not always exact repeats. Equal values may be shown once. Where no end group is shown, it is not given here.

What was measured:
VSV [1] = assay type: cell-based, Vesicular stomatitis virus (VSV)
VSV [2] = assay type: cell-based, Vesicular stomatitis virus (VSV); remark: listed apart in the source

Substance	Amount of virus in culture supernatant (VSV [1])	observation field occupied by a monolayer of living cells (VSV [2])
FFFIIGLIIGLFLVLRVGIHLKKRTLRKNDRKKR-NH2 [Sample 2]	4.7 Log10 TCID 50/mL and 3.5 Log10 TCID 50/mL	
MAIVGIVLLIVVTFLAIKTKKRTLRKNDRKKR-NH2 [Sample 1]	4.4 Log10 TCID 50/mL and 5 Log10 TCID 50/mL	
VLAVIIGFVILMFLIKLIGVLKKRTLRKNDRKKR-NH2 [Sample 3]	4.7 Log10 TCID 50/mL and 4.5 Log10 TCID 50/mL	≥ 90%
